# ChEMBL document CHEMBL6134901 (J Med Chem, 2025)
# The source made the active and inactive calls. The calls are words filed in the database; no cut-off is given here.
# Columns and labels:
# Enterococcus faecalis = assay: Antibacterial activity against Enterococcus faecalis ATCC 29212; type: functional
# [1] = system: Staphylococcus haemolyticus; assay: Antibacterial activity against Staphylococcus haemolyticus ATCC 29970; type: functional
# Acinetobacter baumannii = assay: Antibacterial activity against Acinetobacter baumannii ATCC 17961; type: functional
# Clostridioides difficile [2] = assay: Antibacterial activity against Clostridium difficile RMA23828; type: functional
# Staphylococcus aureus [3] = assay: Antibacterial activity against Staphylococcus aureus NRS119; type: functional
# Bacillus cereus = assay: Antibacterial activity against Bacillus cereus ATCC 13061; type: functional
# Klebsiella aerogenes = assay: Antibacterial activity against Enterobacter aerogenes ATCC 35029; type: functional
# Fusobacterium nucleatum = assay: Antibacterial activity against methicillin/oxacillin/tetracycline-resistant mecA-positive Fusobacterium nucleatum HM-992; type: functional
# Staphylococcus aureus [4] = assay: Antibacterial activity against vancomycin-resistant Staphylococcus aureus VRS1 clinical isolate; type: functional
# Staphylococcus aureus [5] = assay: Antibacterial activity against Staphylococcus aureus ATCC 29213; type: functional
# Bacteroides fragilis = assay: Antibacterial activity against Bacteroides fragilis HM-709; type: functional
# Pseudomonas aeruginosa = assay: Antibacterial activity against Pseudomonas aeruginosa ATCC 27853; type: functional
# Lactobacillus gasseri = assay: Antibacterial activity against Lactobacillus gasseri HM-644; type: functional
# Enterococcus faecium [6] = assay: Antibacterial activity against vancomycin-resistant Enterococcus faecium 106 clinical isolate; type: functional
# [7] = system: Staphylococcus epidermidis; assay: Antibacterial activity against Staphylococcus epidermidis ATCC 35547; type: functional
# Klebsiella pneumoniae = assay: Antibacterial activity against Klebsiella pneumoniae ATCC 700603; type: functional
# Enterococcus faecium [8] = assay: Antibacterial activity against vancomycin-susceptible Enterococcus faecium 119-39A; type: functional
# Escherichia coli = assay: Antibacterial activity against Escherichia coli ATCC 25922; type: functional
# [9] = system: Limosilactobacillus reuteri; assay: Antibacterial activity against vancomycin-susceptible Lactobacillus reuteri HM-102 clinical isolate; type: functional
# Bifidobacterium longum = assay: Antibacterial activity against Bifidobacterium longum HM-846; type: functional
# Clostridioides difficile [10] = assay: Antibacterial activity against fidaxomicin-resistant Clostridium difficile RMA23691 clinical isolate; type: functional
# Eubacterium sp. = assay: Antibacterial activity against Eubacterium sp. HM-178; type: functional
# Clostridioides difficile [11] = assay: Antibacterial activity against metronidazole-resistant Clostridium difficile […] clinical isolate; type: functional
# Staphylococcus aureus [12] = assay: Antibacterial activity against Staphylococcus aureus NRS100; type: functional
# Clostridioides difficile [13] = assay: Antibacterial activity against Clostridium difficile RMA26675; type: functional
# Veillonella = assay: Antibacterial activity against Veillonella sp. HM-49; type: functional
# [14] = Binding affinity to bacterial GerS assessed as dissociation constant by MST assay; set-up: species or system Bacteria
# [15] = Binding affinity to bacterial prepro-SleC assessed as dissociation constant by MST assay; set-up: species or system Bacteria
# [16] = Cytotoxicity against human HepG2 cells incubated for 24 hrs by XTT assay; type: toxicity, cell-based; details: read-out: LD50
# [17] = Binding affinity to bacterial CspB assessed as dissociation constant by MST assay; set-up: species or system Bacteria
# [18] = Binding affinity to bacterial CspA assessed as dissociation constant by MST assay; set-up: species or system Bacteria
# [19] = Binding affinity to bacterial pro-SleC assessed as dissociation constant by MST assay; set-up: species or system Bacteria
# Bacteria [20] = assay: Binding affinity to bacterial cwID assessed as dissociation constant by MST assay
# [21] = Binding affinity to N-terminal His-tagged full-length Clostridium difficile SleC extracted from Escherichia coli LOBSTR-RIL assessed as dissociation constant by MST assay; set-up: species or system Clostridioides difficile
# Bacteria [22] = assay: Binding affinity to bacterial pdaA assessed as dissociation constant by MST assay
# Clostridioides difficile [23] = assay: Antibacterial activity against Clostridium difficile ATTC43255 assessed as spore germination inhibition incubated for 60 mins by spectrometry; type: functional, organism-based; details: ATTC43255, 1 h
# Clostridioides difficile [24] = assay: Antibacterial activity against Clostridium difficile ATTC43255 assessed as spore germination inhibition at 45 uM incubated for 60 mins by spectrometry relative to control; type: functional; details: ATTC43255, 1 h
SMILES,MIC (Enterococcus faecalis),MIC [1],MIC (Acinetobacter baumannii),MIC (Clostridioides difficile [2]),MIC (Staphylococcus aureus [3]),MIC (Bacillus cereus),MIC (Klebsiella aerogenes),MIC (Fusobacterium nucleatum),MIC (Staphylococcus aureus [4]),MIC (Staphylococcus aureus [5]),MIC (Bacteroides fragilis),MIC (Pseudomonas aeruginosa),MIC (Lactobacillus gasseri),MIC (Enterococcus faecium [6]),MIC [7],MIC (Klebsiella pneumoniae),MIC (Enterococcus faecium [8]),MIC (Escherichia coli),MIC [9],MIC (Bifidobacterium longum),other results
CCc1c(Cl)c(O)c(Cl)c(O)c1C(=O)O[C@H]1[C@H](O)[C@H](OC)[C@H](OC/C2=C\C=C\C[C@H](O)/C(C)=C/[C@H](CC)[C@@H](O[C@@H]3OC(C)(C)[C@@H](OC(=O)C(C)C)[C@H](O)[C@@H]3O)/C(C)=C/C(C)=C/C[C@@H]([C@@H](C)O)OC2=O)O[C@@H]1C [FIDAXOMICIN],> 16 µg/mL,16 µg/mL,> 128 µg/mL,> 8 µg/mL,2 µg/mL,16 µg/mL,> 128 µg/mL,< 0.06 µg/mL,64 µg/mL,16 µg/mL,> 32 µg/mL,> 128 µg/mL,2 µg/mL,> 16 µg/mL,4 µg/mL,> 128 µg/mL,> 16 µg/mL,> 128 µg/mL,> 32 µg/mL,0.01 µg/mL,MIC (Clostridioides difficile [10]): 4 µg/mL; MIC (Eubacterium sp.): 16 µg/mL; MIC (Clostridioides difficile [11]): 0.125 µg/mL; MIC (Staphylococcus aureus [12]): 16 µg/mL; MIC (Clostridioides difficile [13]): 4 µg/mL; MIC (Veillonella): 8 µg/mL
Oc1ccc(-c2nc(-c3ccc(OC4CCCC4)cc3)no2)cc1,4 µg/mL,2 µg/mL,> 128 µg/mL,4 µg/mL,2 µg/mL,2 µg/mL,> 128 µg/mL,2 µg/mL,2 µg/mL,2 µg/mL,2 µg/mL,> 128 µg/mL,> 128 µg/mL,2 µg/mL,2 µg/mL,> 128 µg/mL,2 µg/mL,> 128 µg/mL,> 128 µg/mL,1 µg/mL,Kd [14]: > 200 µM; Kd [15]: 4.3 µM; CC50 at 24 h [16]: 22 µg/mL; Kd [17]: 75 µM; Kd [18]: > 200 µM; Kd [19]: 91 µM; Activity (Bacteria [20]): inactive; Kd [21]: > 200 µM; Activity (Bacteria [22]): inactive; IC50 (Clostridioides difficile [23]): 74 µM; MIC (Clostridioides difficile [10]): 4 µg/mL; MIC (Eubacterium sp.): 0.5 µg/mL; MIC (Clostridioides difficile [11]): 2 µg/mL; MIC (Staphylococcus aureus [12]): 2 µg/mL; inhibition at 45 µM (Clostridioides difficile [24]): 26%; MIC (Clostridioides difficile [13]): 4 µg/mL; MIC (Veillonella): > 128 µg/mL
